Holding throughout (test): drug sensitivity score (DSS2, normalised partial AUC of dose-response, 72 h CellTiter-Glo viability) (DSS (dimensionless)); higher = more sensitive (stronger growth inhibition / cytotoxicity); extreme values may be limits of the assay
(In ATP-based viability assays light output follows the ATP content of the culture.)

For one experiment, the system named is CAF#6 (primary prostate cancer-associated fibroblasts of iCAF-like type). The essentials:
(§1)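 Low-passage primary prostate cancer-associated fibroblasts, PF179T, WPMY-1, LNCaP and 22Rv1 cells were seeded into 384-well plates carrying pre-dispensed compounds at five doses covering a 10,000-fold range. After 72 h, viability was read by CellTiter-Glo 2.0 luminescence. Responses were scaled to vehicle and positive-control wells. The drug sensitivity score (DSS2) is a partial area under the fitted logistic dose–response curve divided by the log of its upper asymptote, computed in BREEZE; higher means more sensitive.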

A further experiment deals with PF179T. The essentials: as §1
For a further experiment, the system named is WPMY-1. The essentials:
as §1

For another experiment, the system named is 22Rv1. The essentials: as §1
A further experiment has as its system CAF#5 (primary prostate cancer-associated fibroblasts of myCAF-like type). Summed up: as §1
For another experiment, the system named is LNCAP. Summed up: as §1
The subject of the next experiment is CAF#3 (primary prostate cancer-associated fibroblasts of myCAF-like type). The essentials: as §1
The test system of a further experiment is CAF#1 (primary prostate cancer-associated fibroblasts of myCAF-like type). Summed up: as §1
The next experiment has as its system CAF#2 (primary prostate cancer-associated fibroblasts of iCAF-like type). The essentials: as §1
In another experiment the test system is CAF#7 (primary prostate cancer-associated fibroblasts of myCAF-like type). Summed up:
as §1

For another experiment, the system named is CAF#4 (primary prostate cancer-associated fibroblasts of iCAF-like type). Summed up: as §1

`CCC1=C[C@@H]2CN(C1)Cc1c([nH]c3ccccc13)[C@@](C(=O)OC)(c1cc3c(cc1OC)N(C)[C@H]1[C@@](O)(C(=O)OC)[C@H](OC(C)=O)[C@]4(CC)C=CCN5CC[C@]31[C@@H]54)C2` [Vinorelbine] (tested concentration range 1-10000 nM): the drug sensitivity score turned out to be 19.6 in the experiment on CAF#6; 19.7 in the experiment on PF179T; 36.9 with WPMY-1; 31.3 in the experiment on 22Rv1; 18.1 with CAF#5; 42 in the experiment on LNCAP. For the same compound, the drug sensitivity score in the experiment with CAF#3 worked out at 15.3; in the experiment with CAF#1, 17.3; in the experiment on CAF#2, 20.1; in the experiment on CAF#7, 26; in the experiment on CAF#4, 12.6.

`NC(=O)/C(=C/n1cnc(-c2cc(C(F)(F)F)cc(C(F)(F)F)c2)n1)c1cncnc1` [Eltanexor] (tested concentration range 1-10000 nM): the drug sensitivity score with CAF#6 was 12.1; in the experiment with PF179T, 18.2; in the experiment on WPMY-1, 27.5; with 22Rv1, 31.1; in the experiment on CAF#5 it was 16.8; in the experiment with LNCAP, 28.6. For the same compound, the drug sensitivity score in the experiment with CAF#3 stood at 10.8; with CAF#1, 14.5; in the experiment on CAF#2 it was 22.8; with CAF#7, 14.4; with CAF#4, 15.5.

As for `CN(C)C(=O)c1ccc(S(=O)(=O)c2ccc(NC(=O)[C@@](C)(O)C(F)(F)F)c(Cl)c2)cc1` [AZD7545] (tested concentration range 1-10000 nM), the drug sensitivity score with CAF#6 is 0; in the experiment on PF179T, 0; in the experiment with WPMY-1, 0.1; in the experiment on 22Rv1, 0.2; in the experiment on CAF#5, 0; with LNCAP, 2.7. For the same compound, the drug sensitivity score in the experiment with CAF#3 was determined as 0.4; in the experiment on CAF#1, 0; in the experiment with CAF#2, 0; with CAF#7, 0; in the experiment on CAF#4, 0.

Take `CN1C(=O)N[C@H](Cc2c[nH]c3c(Cl)cccc23)C1=O` [Necrostatin 2] (tested concentration range 1-10000 nM): the drug sensitivity score in the experiment with CAF#6, in the experiment with PF179T, in the experiment on WPMY-1, with 22Rv1, in the experiment on CAF#5 and with LNCAP was 0 throughout. Also, the drug sensitivity score with CAF#3, with CAF#1, with CAF#2, in the experiment with CAF#7 and in the experiment with CAF#4 was 0 each time.

`CC[C@H](CO)Nc1nc(NCc2ccccc2)c2ncn(C(C)C)c2n1` [Seliciclib] (tested concentration range 1-10000 nM): the drug sensitivity score with CAF#6 was found to be 1.1; in the experiment with PF179T, 0; in the experiment with WPMY-1 it was 0.6; in the experiment with 22Rv1 it was 0.2; with CAF#5, 2; in the experiment on LNCAP it was 4.3. For the same compound, the drug sensitivity score with CAF#3 turned out to be 1.4; in the experiment with CAF#1, 1.7; with CAF#2 it was 1.1; in the experiment on CAF#7, 2.3; with CAF#4, 1.4.

As for `Cc1ccc(NC(=O)c2ccc(CN3CCN(C)CC3)cc2)cc1Nc1nccc(-c2cccnc2)n1` [Imatinib] (tested concentration range 1-10000 nM), the drug sensitivity score worked out at 1.7 in the experiment on CAF#6; 0 with PF179T; 0.6 in the experiment with WPMY-1; 1.6 in the experiment on 22Rv1; 0.6 in the experiment on CAF#5; 2.2 with LNCAP. Moreover, the drug sensitivity score was determined as 1.7 in the experiment on CAF#3; 0.3 in the experiment on CAF#1; 2.6 in the experiment with CAF#2; 0.7 in the experiment on CAF#7; 2 in the experiment on CAF#4.

For `Cc1ccc(C(=O)N(CCCN)[C@@H](c2oc3cc(Cl)ccc3c(=O)c2Cc2ccccc2)C(C)C)cc1` (tested concentration range 0-100 nM), the drug sensitivity score worked out at 1.6 in the experiment on CAF#6; 2.9 with PF179T; 4 in the experiment on WPMY-1; 3.6 in the experiment with 22Rv1; 4.3 in the experiment with CAF#5; 19.3 in the experiment on LNCAP. Besides, the drug sensitivity score with CAF#3 came to 0.4; with CAF#1 it was 1.6; with CAF#2 it was 7.1; in the experiment on CAF#7, 1.3; in the experiment on CAF#4, 2.5.

With `CCc1nc(C(N)=O)c(Nc2ccc(N3CCC(N4CCN(C)CC4)CC3)c(OC)c2)nc1NC1CCOCC1` [Gilteritinib] (tested concentration range 0.1-1000 nM), the drug sensitivity score came out at 0 in the experiment with CAF#6; 1.3 with PF179T; 5.2 in the experiment with WPMY-1; 1.7 in the experiment on 22Rv1; 0.1 with CAF#5; 0 in the experiment with LNCAP. Further, the drug sensitivity score with CAF#3 was determined as 0; in the experiment on CAF#1, 0.3; in the experiment on CAF#2, 0; in the experiment on CAF#7, 0; with CAF#4 it was 0.

`CCS(=O)(=O)Nc1ccc(Oc2ccc(F)cc2F)c(-c2cn(C)c(=O)c3[nH]ccc23)c1` [Mivebresib] (tested concentration range 1-10000 nM): the drug sensitivity score was determined as 13.3 with CAF#6; 11.1 with PF179T; 22.9 in the experiment on WPMY-1; 23.5 with 22Rv1; 15.5 with CAF#5; 30.7 in the experiment with LNCAP. Also, the drug sensitivity score in the experiment with CAF#3 is 19.3; with CAF#1, 19; in the experiment on CAF#2 it was 19.7; in the experiment with CAF#7, 11.4; in the experiment on CAF#4, 10.7.

Take `Cc1sc2c(c1C)C(c1ccc(Cl)cc1)=N[C@@H](CC(=O)Nc1ccc(OCCOCCOCCOCCNc3cccc4c3C(=O)N(C3CCC(=O)NC3=O)C4=O)cc1)c1nnc(C)n1-2` (some centres not stated) [ARV-825] (tested concentration range 0-300 nM): the drug sensitivity score in the experiment with CAF#6 turned out to be 11.6; in the experiment on PF179T it was 3.3; with WPMY-1, 8.1; in the experiment with 22Rv1, 14.7; in the experiment with CAF#5, 6.2; with LNCAP, 17.1. Further, the drug sensitivity score in the experiment with CAF#3 worked out at 15.6; with CAF#1, 7.7; in the experiment on CAF#2, 5.8; in the experiment with CAF#7, 17.1; in the experiment with CAF#4, 6.9.

`C[C@]1(O)C[C@@H](c2nc(-c3ccc4ccc(-c5ccccc5)nc4c3)c3c(N)nccn32)C1` [Linsitinib] (tested concentration range 1-10000 nM): the drug sensitivity score was 0.2 in the experiment with CAF#6; 0 in the experiment on PF179T; 0.5 with WPMY-1; 1.3 in the experiment with 22Rv1; 3.2 in the experiment on CAF#5; 0.6 with LNCAP. Besides, the drug sensitivity score in the experiment with CAF#3 stood at 0; with CAF#1 it was 1.5; in the experiment on CAF#2, 2.6; with CAF#7 it was 0.7; in the experiment on CAF#4 it was 0.

Consider `CN(C)CC#Cc1ccc(OCCCc2sc(N3CCc4cccc(C(=O)Nc5nc6ccccc6s5)c4C3)nc2C(=O)O)c(F)c1` (tested concentration range 1-10000 nM), for which the drug sensitivity score in the experiment with CAF#6 is 5.6; in the experiment with PF179T it was 0; with WPMY-1 it was 1.4; in the experiment on 22Rv1 it was 0; in the experiment with CAF#5, 3.2; with LNCAP it was 6.1. Further, the drug sensitivity score with CAF#3 was 0.2; in the experiment on CAF#1, 2.7; with CAF#2 it was 2.3; in the experiment on CAF#7 it was 4.1; in the experiment with CAF#4, 14.4.

The record behind these values is the supplement of paper PMC12592484.
